Measured values from article doi:10.1101/2022.01.25.477728v2 (biorxiv, 2022).
pKd: −log10 of the molar value.

target: T1, TcBDF2 / TcBD2 (TcBDF2HA) (Trypanosoma cruzi, UniProt A0A2V2V5V1); assay: intrinsic tryptophan fluorescence quenching; format: binding
T1 sequence (A0A2V2V5V1 2-119): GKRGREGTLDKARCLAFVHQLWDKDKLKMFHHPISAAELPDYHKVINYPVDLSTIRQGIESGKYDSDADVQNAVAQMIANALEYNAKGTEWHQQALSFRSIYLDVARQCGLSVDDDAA

| Structure (SMILES) | pKd |
| --- | --- |
| CCOC(=O)Nc1cc(-c2ccc(C)c(NS(C)(=O)=O)c2)nn2c(C)nnc12 [Bromosporine] | ~4.85 |
| COc1cc(OC)c2c(=O)[nH]c(-c3cc(C)c(OCCO)c(C)c3)nc2c1 [RVX-208] | < 3.82 |
| COc1cc2c(cc1-c1c(C)noc1C)ncc1[nH]c(=O)n([C@H](C)c3ccccn3)c12 [iBET-151] | ~4.85 |
